From US20170340658A1, “COMBINED USE OF A CHEMOTHERAPEUTIC AGENT AND A CYCLIC DINUCLEOTIDE FOR CANCER TREATMENT” (INVIVOGEN, priority 2014, published 2017)

Key:
Panc02 tumors = experiment: Murine model of orthotopic Panc02 pancreatic tumors (Example 4); assay type: in vivo, mouse; details: for INCIDENCE OF METASTASIS / PRE-SACRIFICE MORTALITY: Day 34
Description: • Species evaluated: mouse • Tumor model: Panc02 (murine pancreatic tumor cell line) • Treatments tested: gemcitabine monotherapy, c-AIMP monotherapy, and gemcitabine combined with c-AIMP • Clinical parameters evaluated: tumor volume, incidence of metastasis and mortality • Administration routes evaluated: intravenous (i.v.) or intratumoral (i.t.) injection (depending on experiment) • On Day 1, 30 mice (C57BL/6; male) received an orthotopic injection of Panc02 tumor cells (1×10^6) in their pancreas. The mice were then divided into six groups of five animals. Each group received a different treatment, as outlined below: • Group 1: saline (by i.v. injection) on Days 7, 10, 14, 17, 21 and 24; • Group 2: gemcitabine monotherapy (100 mg/kg; i.p.); on Days 7, 10, 14, 17, 21 and 24; • Group 3: c-AIMP monotherapy (25 mg/kg; i.t.) on Days 7 and 21; • Group 4: c-AIMP monotherapy (25 mg/kg; i.v.) on Days 7, 14 and 21; • Group 5: c-AIMP (25 mg/kg; i.t.) followed (5 h later) by gemcitabine (100 mg/kg; i.p.) on Day 7; and gemcitabine (100 mg/kg; i.p.) on Days 10, 14, 17, 21 and 24; • Group 6: c-AIMP (25 mg/kg; i.v.) followed (5 h later) by gemcitabine (100 mg/kg; i.p.) on Day 7; and gemcitabine (100 mg/kg; i.p.) on Days 10, 14, 17, 21 and 24;
At days 7, 21/24, 28 and 34, the mice were assessed for tumor volume, incidence of metastasis and mortality.

Panc02 pancreatic tumors = experiment: Orthotopic Panc02 pancreatic tumors in mice, intercalated combinations (Example 8); assay type: in vivo, mouse; details: for mean tumor volume: Day 30, CDN 5 mg/kg i.t. Day 9, i.v. Days 16, 23, gemcitabine 100 mg/kg i.p. Days 12, 19, 26; for # Mice with metastases / Average # metastases per mouse: Day 30 post-implantation, CDN 5 mg/kg, gemcitabine 100 mg/kg i.p.
Description: • Species evaluated: mouse • Tumor model: Panc02 • Treatment tested: intercalated combinations of a CDN (either CL592, CL614 or CL656) and gemcitabine • Reference compounds: gemcitabine, CL592, CL614 and CL656 • Parameters evaluated: tumor growth, and incidence of metastases
On Day 1, 55 mice (C57/BL6; male; 10 weeks old; 23 g to 25 g) each received an intrapancreatic injection of Panc02 cells (1×10^6 cells in 50 μL serum-free medium).
Day 9: Groups 3 to 8 each received an intratumoral injection of the appropriate CDN (CL592, CL614 or CL656, respectively; 50 μL; 5 mg/kg in 0.9% saline)
Day 12: Group 2 and Groups 6 to 8 each received an intraperitoneal injection of gemcitabine (200 μL; 100 mg/kg in 0.9% saline)
Day 16: Groups 3 to 8 each received an intravenous injection of the appropriate CDN (CL592, CL614 or CL656, respectively; 50 μL; 5 mg/kg in 0.9% saline)
Day 19: Group 2 and Groups 6 to 8 were treated as on Day 12.
Day 23: Groups 3 to 8 were treated as on Day 16.
Day 26: Group 2 and Groups 6 to 8 were treated as on Days 12 and 19.
Day 30: Each mouse was checked for tumor presence and metastases.

IL-6 = IL-6 induction in sera of CDN-treated mice, ELISA (Example 3); assay type: in vivo, mouse; details: 10 mg/kg i.v., 4 h post-treatment, FIG. 6
Description: Interleukin-6 was quantified using an enzyme-linked immunoassay (ELISA) according to the manufacturer's instructions (R&D Systems).
(§1) • Species evaluated: mouse • Cyclic dinucleotides tested: CL604, CL606, CL609, CL611 and CL614 • Reference compound: c-AIMP and saline • Cytokines evaluated: IFN-α/β (using RAW ISG54 reporter cells) and IL-6 (by ELISA)
(§2) Twenty-one mice (Swiss; female; mean age: 8 weeks) were divided into seven groups of three: one group served as control (saline) and the other six groups were each treated with a cyclic dinucleotide (either c-AIMP, CL604, CL606, CL609, CL611 or CL614). On Day −7, blood samples for basal cytokine levels were collected from all mice and stored at −20° C. until analysis. On Day 1, the mice were treated with either 200 μL of physiologic serum (containing 0.9% NaCl) or 200 μL of a solution of a cyclic dinucleotide (dose: 10 mg/kg) in physiologic serum (containing 0.9% NaCl), by intravenous (i.v.) injection. Blood samples were collected from the mice at 4 h post-injection, and then stored at −20° C. until analysis. Cytokine induction was measured in the sera from the blood samples.

Type I interferons = experiment: Type I interferon induction in sera of CDN-treated mice (Example 3); assay type: in vivo, mouse; details: 10 mg/kg i.v., 4 h post-treatment, FIG. 5
Description: as §1, §2

DT6606 pancreatic tumors = details: Day 36 vs pre-treatment tumor volume; CL592 i.t. Day 13, 5 mg/kg i.v. Days 20, 27; gemcitabine 100 mg/kg i.p. Days 16, 23, 30
Description: • Tumor line evaluated: DT6606 (Partecke, 2011) • Treatment tested: intercalated combination of CL592 and gemcitabine • Reference compound: gemcitabine • Parameter evaluated: tumor growth
On Day 1, 20 mice (C57/BL6; female; 10 weeks old; 18 g to 22 g) received an intrapancreatic injection of DT6606 cells (5×10^5 cells in 30 μL serum-free medium). One mouse was sacrificed before treatment due to a renal deformation.
The groups were then treated according to the treatment regimen below.
Day 13: Groups 1 and 2 received an intratumoral injection of saline solution (50 μL), and Groups 3 and 4, an intratumoral injection of CL592 (50 μL; 2.5 mg/mL in saline buffer;).
Day 16: Groups 2 and 4 received an intraperitoneal tail injection of gemcitabine (100 μL solution/100 g body mass; 10 mg/mL in saline buffer; dose: 100 mg/kg).
Day 20: Groups 3 and 4 received an intravenous tail injection of CL592 (200 μL; 0.5 mg/mL in saline buffer; dose: 5 mg/kg).
Day 23: Groups 2 and 4 were treated as on Day 16.
Day 27: Groups 3 and 4 were treated as on Day 20.
Day 30: Groups 2 and 4 were treated as on Days 16 and 23.
Day 36: Each mouse was checked for tumor presence. The volume of each observed tumor was measured and the mice were then sacrificed.
Tumor growth (expressed as a percentage) was calculated as follows:
(([tumor volume at day 36]−[pre-treatment tumor volume])/[pre-treatment tumor volume])×100%

PC-1.0 tumors = experiment: Hamster model of orthotopic PC-1.0 pancreatic tumors (Example 5); assay type: in vivo; details: gemcitabine monotherapy 50 mg/Kg i.p.
Description: • Species evaluated: hamster • Tumor model: PC-1.0 (hamster pancreatic tumor cell line (Egami, Tomioka, Tempero, Kay, & Pour, 1991)) • Treatments tested: gemcitabine monotherapy, and gemcitabine combined with c-AIMP • Clinical parameters evaluated: tumor volume, incidence of metastasis and mortality • Administration routes evaluated: intravenous (i.v.) vs. intratumoral (i.t.) injection (depending on experiment) for CL592 • On Day 1, 22 hamsters (Golden Syrian) received an orthotopic injection of PC-1.0 tumor cells (1×10^6) in the tail of their pancreas. The hamsters were then divided into four groups of five or six animals. Each group received a different treatment, as outlined below: • Group 1 (n=5) received saline (by i.v. injection) on Days 8, 15 and 22; • Group 2 (n=6): c-AIMP (25 mg/Kg; i.v.) followed by gemcitabine (50 mg/Kg; i.p.) on Day 8; and gemcitabine (50 mg/Kg; i.p.) on Days 15 and 22; • Group 3 (n=6): c-AIMP (25 mg/Kg; i.t.) followed by gemcitabine (50 mg/Kg; i.p.) on Day 8; and gemcitabine (50 mg/Kg; i.p.) on Days 15 and 22; • Group 4 (n=5): gemcitabine monotherapy (50 mg/Kg; i.p.) at Days 8, 15 and 22.
At days 8, 21/24, 28 and 34, the mice were assessed for tumor volume, incidence of metastasis and mortality.

[1] = c-AIMP 25 mg/kg i.t., alone or with gemcitabine 100 mg/kg i.p.
[2] = c-AIMP 25 mg/kg i.v., alone or with gemcitabine 100 mg/kg i.p.
[3] = gemcitabine monotherapy 100 mg/kg i.p.

Compound: Nc1ncnc2c1ncn2[C@@H]1O[C@@H]2COP(=O)(O)O[C@H]3[C@@H](O)[C@H](n4cnc5c(=O)[nH]cnc54)O[C@@H]3COP(=O)(O)O[C@H]2[C@H]1O [CL592, c-AIMP]
- INCIDENCE OF METASTASIS (Panc02 tumors; [1]): 0%
- PRE-SACRIFICE MORTALITY (Panc02 tumors; [1]): 0%
- INCIDENCE OF METASTASIS (Panc02 tumors; [2]): 0%
- PRE-SACRIFICE MORTALITY (Panc02 tumors; [2]): 0%
- reducing tumor growth (Panc02 tumors; FIG. 7, c-AIMP 25 mg/kg i.v. or i.t., comparison among all treatments): most effective ones at reducing tumor growth
- mean tumor volume (Panc02 pancreatic tumors): 231.0 mm^3
- # Mice with metastases (Panc02 pancreatic tumors): 20% (1/5)
- Average # metastases per mouse (Panc02 pancreatic tumors): 2

Compound: Nc1ncnc2c1ncn2C1OC2COP(=O)(S)O[C@@H]3C(COP(=O)(S)O[C@H]2[C@H]1F)OC(n1cnc2c(=O)[nH]cnc21)[C@@H]3F (mixture of isomers) [CL656, c-[2′FdAMP(S)-2′FdIMP(S)]]
- mean tumor volume (Panc02 pancreatic tumors): 340.2 mm^3
- # Mice with metastases (Panc02 pancreatic tumors): 40% (2/5)
- Average # metastases per mouse (Panc02 pancreatic tumors): 3

Compound: Nc1ncnc2c1ncn2C1OC2COP(=O)(O)O[C@H]3C(n4cnc5c(=O)[nH]cnc54)OC(COP(=O)(O)O[C@@H]1[C@@H]2O)[C@H]3O (stereo partly drawn) [CL611, (2′,2′)c-AIMP]
- induction of IL-6 in sera (IL-6): all of the cyclic dinucleotides except CL611 induced IL-6
- induction of Type I interferons in sera (Type I interferons): all of the tested cyclic dinucleotides except CL611 strongly induced Type I interferons

Compound: Nc1ccn([C@@H]2O[C@H](CO)[C@@H](O)C2(F)F)c(=O)n1 [gemcitabine, Gemcitabine]
- mean tumor growth (DT6606 pancreatic tumors): 22%
- INCIDENCE OF METASTASES (PC-1.0 tumors): 100%
- NUMBER OF METASTASES PER HAMSTER, Hamster 1 (PC-1.0 tumors): 13
- NUMBER OF METASTASES PER HAMSTER, Hamster 2 (PC-1.0 tumors): 15
- NUMBER OF METASTASES PER HAMSTER, Hamster 3 (PC-1.0 tumors): 3
- NUMBER OF METASTASES PER HAMSTER, Hamster 4 (PC-1.0 tumors): 10
- NUMBER OF METASTASES PER HAMSTER, Hamster 5 (PC-1.0 tumors): 5
- INCIDENCE OF METASTASES (PC-1.0 tumors; listed as GemC): 100%
- INCIDENCE OF METASTASIS (Panc02 tumors; [3]): 50%
- PRE-SACRIFICE MORTALITY (Panc02 tumors; [3]): 20%
- PRE-SACRIFICE MORTALITY (Panc02 tumors; gemcitabine monotherapy 100 mg/kg i.p., listed as GemC): 20%
- mean tumor volume (Panc02 pancreatic tumors): 380.7 mm^3
- # Mice with metastases (Panc02 pancreatic tumors): 88% (7/8)
- Average # metastases per mouse (Panc02 pancreatic tumors): 13

Compound: Nc1ncnc2c1ncn2C1OC2COP(=O)(O)O[C@@H]3C(COP(=O)(O)O[C@H]2[C@H]1F)OC(n1cnc2c(=O)[nH]cnc21)[C@@H]3F (stereo partly drawn) [CL614, c-(2′FdAMP-2′FdIMP)]
- mean tumor volume (Panc02 pancreatic tumors): 318.6 mm^3
- # Mice with metastases (Panc02 pancreatic tumors): 40% (2/5)
- Average # metastases per mouse (Panc02 pancreatic tumors): 5
